Experimental data taken from patent US8835510B2, “Methods and compositions for treating conditions mediated by oxidative stress or electrophilic environmental toxins” (priority 2010, dated 2014).
Several values for one entry are separate records, joined by “and”; a condition that tells them apart may be missing. Identical values can stand only once. Entries after “also recorded” stand apart in the source; their conditions may differ.

Assays:
[1] = Ferrous ion chelation (method of Dairam et al.); details: for EC50: read-out: concentration at which 50% Fe^2+ chelation occurs
Aqueous solubility = assay type: physicochemical
[2] = system: acrolein-exposed striatal synaptosomes; test: Protection against acrolein-induced inhibition of 3H-dopamine transport in striatal synaptosomes; assay type: cell-based, rat; details: for change in acrolein IC50 for inhibition of DA transport: test compound 500 μM, Krebs buffer pH 7.4, 30° C., 15 mins (FIG. 5A)
Male rats = test: 2-ACP toxicity in rats (14 day i.p. dosing); assay type: in vivo, rat; details: i.p. 100, 200 or 300 mg/kg/d×14 days
Procedure: (§1) This study was carried out in accordance with the NIH Guide for Care and Use of Laboratory Animals and approved by the Montefiore Medical Center Animal Care and Use Committee. Adult male rats (Sprague-Dawley, Taconic Farms, Germantown, N.Y., USA) were used in this study. Rats were housed individually in polycarbonate boxes, and drinking water and Purina Rodent Laboratory Chow (Purina Mills, Inc., St. Louis, Mo., USA) were available ad libitum.
(§2) Male rats (200-250 gm) were injected (i.p.) with 2-ACP at three different daily dose-rates: 100, 200 or 300 mg/kg/d×14 days. Rats were observed 3 times per week for signs of developing toxicity; i.e., body weight loss, general appearance, water/food consumption, gait performance and home cage behavior. […] As a model of in vivo oxidative stress, rats (200-250 gm) were administered 30 μl of carbon tetrachloride (CCl4) in corn oil (ip) following six daily doses of 2-ACP (200 mg/kg/d) by gavage. […] These findings indicate that 2-ACP decreased the degree of hepatic cell death caused by CCl4.

MN9D cells [3] = test: Cell viability (trypan blue) in H2O2-exposed MN9D cultures; details: for concentration dependence of protection against H2O2: graded concentrations: 2-ACP 250-750 μM, AcAc 500-1500 μM (range-finding 50-1000 μM); for protection against H2O2-induced cell death: test compound 750 μM (phloretin 100 μM); for protection against H2O2-induced cytotoxicity: FIG. 7
Procedure: (§3) As a more complex biological model, a determination was made of the relative abilities of the 1,3-dicarbonyls to protect MN9D cells, a dopaminergic cell line, from acrolein- (FIG. 6) or hydrogen peroxide (H2O2)-induced cell death (FIG. 7). Briefly, two days after plating, cells were incubated with AcAc (750 μM) for one hr followed by exposure to graded concentrations of either acrolein (0.50-150 μM×24 hrs) or H2O2 (50-750 μM×24 hrs). Cell viability was determined by trypan blue (0.1%) exclusion. Living cells were counted in a hemocytometer and total cells per dish were calculated.
This system represents a more complete model of oxidative stress since the hydroxyl radical formed from intracellular H2O2 during the Fenton reaction, subsequently mediates the generation of toxic aldehyde by-products such as acrolein and 4-hydroxy-2-nonenal (HNE).

[4] = pKa and enolate ionization of enol compounds; assay type: physicochemical; details: for fraction in the anionic enolate state: pH 7.4 (neutral / cellular pH); for increase in enolate concentration: pH 9.0 relative to pH 7.4
MN9D cells [5] = test: Cell viability (trypan blue) in acrolein-exposed MN9D cultures; details: for concentration dependence of protection against acrolein: graded concentrations: 2-ACP 100-750 μM, AcAc 250-1000 μM (range-finding 50-1000 μM); for protection against acrolein-induced cell death (words): pre-incubation 60 minutes, 750 μM each (phloretin 100 μM); for increase in acrolein LC50: test compound 750 μM pre-incubation
Procedure: as §3

[6] = system: acrolein-exposed striatal synaptosomes; test: Protection against acrolein-induced thiol loss in striatal synaptosomes (DTNB); assay type: cell-based, rat; details: for cytoprotection / thiol protection in acrolein-exposed synaptosomes: pH 7.4, test compound 500 μM
Procedure: Therefore, as an investigation of possible cytoprotection, a determination was made of the relative abilities of the above 1,3-dicarbonyl structural series to prevent thiol loss in acrolein-exposed rat striatal synaptosomes (isolated CNS nerve terminals). Synaptosomes were prepared according to the methods of LoPachin et al.^52 and were exposed (Krebs buffer, pH 7.4, 30° C.×15 mins) to graded concentrations of acrolein (1-1000 μM) alone or in combination with a 1,3-dicarbonyl derivative or control compound (500 μM). […] The respective IC50s and 95% confidence intervals were calculated by the […] (Prism 3.0, GraphPad Software). The selected 1,3-dicarbonyls are carbanion nucleophiles and, therefore, the analyses also included NAC as a representative thiolate-type nucleophile. Studies were conducted to assess the in vitro toxicity of the selected enol derivatives (FIG. 4).
Studies were carried out using isolated brain nerve terminals (striatal synaptosomes) exposed to acrolein as a model of electrophile-induced toxicity, as illustrated in FIG. 5A-5B. Acrolein is a soft electrophile that inhibits protein function by forming adducts with soft nucleophilic cysteine residues and thereby causes synaptosomal toxicity.

[7] = Kinetic assay of acrolein-induced N-acetyl cysteine (NAC) sulfhydryl loss (DTNB method); details: for sulfhydryl (NAC) protection, pre-incubation: acrolein pre-incubated with test compound, NAC added one hour later; for ability to slow acrolein-induced NAC thiol loss: co-incubation, test compound 50 μM, pH 7.4 (FIG. 3A); for rate of sulfhydryl loss (mean rate±SE): NAC + acrolein 150 μM + test compound 50 μM co-incubated, Krebs buffer pH 7.4, 30° C.; for rate of acrolein-induced sulfhydryl (NAC) loss (mean rate±95% confidence interval): pH 7.4
From the text: As an index of cytoprotection, these studies focused on the abilities of 1,3-dicarbonyl compounds to prevent electrophile-induced loss of protein and non-protein sulfhydryl groups. This experimental focus is based on substantial evidence that soft electrophiles, like acrolein, produce toxicity by forming Michael-type adducts with soft nucleophilic thiolate (anionic sulfhydryl) groups on functionally critical proteins^9, 17, 22, 56, 57 (reviewed in^28, 58, 62, 77, 94). […] To test this hypothesis, a determination was made of the ability of AcAc and other structurally related enol analogs to prevent sulfhydryl (nucleophile) adduction by acrolein (electrophile)^56. […] Free sulfhydryl concentrations were determined over time (up to 15 mins) by the DTNB method of LoPachin et al.^52.
Therefore, as a kinetic index of competitive thiol protection by enolate sequestration, the relative in vitro abilities of 1,3-dicarbonyl compounds and phloretin to slow the rate of acrolein-induced sulfhydryl loss were measured.

CCl4-intoxicated rats = test: Protection from carbon tetrachloride-induced hepatotoxicity in rats; assay type: in vivo, rat; details: 2-ACP 200 mg/kg/d by gavage, six daily doses, then CCl4 30 μl ip; plasma 24 hours after
Procedure: as §1, §2

[8] = Free radical scavenging (DPPH absorbance method of Ak and Gulcin)
Procedure: The relative abilities of selected 1,3-dicarbonyl compounds to scavenge free radicals were determined using the spectrophotometric method of Ak and Gulcin (2008)^4 that measures changes in the absorbance of the 2,2-diphenyl-1-picrylhydrazyl radical.

whole animal = details: cited from earlier work
[9] = co-incubation with test compound 500 μM

| Structure (SMILES) | protection against H2O2-induced cell death (MN9D cells [3]) | pKa [4] | fraction in the anionic enolate state [4] | protection against acrolein-induced cell death (words) (MN9D cells [5]) | sulfhydryl (NAC) protection, pre-incubation [7] | change in acrolein IC50 for inhibition of DA transport [2] | rate of sulfhydryl loss (mean rate±SE) [7] [nmol SH sec^−1] | also measured |
| --- | --- | --- | --- | --- | --- | --- | --- | --- |
| CC(=O)C1CCCC1=O (stereo not drawn) [2-ACP, 2-acetylcyclopentanone] | nearly complete protection | 7.8 | ~50% | completely prevented cell death | completely preserved |  |  | EC50 [1]: 211 µM; water solubility (Aqueous solubility): water soluble; increase in acrolein IC50 for 3H-DA transport inhibition [2, 9]: 15 fold; overt signs of toxicity (body weight loss, appearance, water/food consumption, gait, home cage behavior) (Male rats): did not cause overt signs of toxicity; concentration dependence of protection against H2O2 (MN9D cells [3]): significant increases in the LC50 of H2O2; concentration dependence of protection against acrolein (MN9D cells [5]): significant increases in the LC50; increase in acrolein IC50 for synaptosomal thiol loss [6, 9]: 15 fold; sulfhydryl (NAC) protection, co-incubation ([7]; all chemicals added simultaneously): complete sulfhydryl protection; reduction of plasma alanine transferase (ALT) relative to toxicant only (CCl4-intoxicated rats): 40%; reduction of plasma aspartate transferase (AST) relative to toxicant only (CCl4-intoxicated rats): 52%; DPPH scavenging rate, fold slower than curcumin ([8]; relative to curcumin): 30-40 fold |
| CC(=O)N[C@@H](CS)C(=O)O [NAC, N-acetyl cysteine, reference compound] | significantly less efficacious; also recorded: less protective |  |  | nearly complete protection; also recorded: completely prevented cell death |  | largest increases in the acrolein IC50 |  | Fe^2+ chelating activity [1]: little, if any, Fe^2+ chelating activity; DPPH radical scavenging [8]: modest free radical scavenging |
| CC(=O)C(C)C(C)=O [MPD, 3-methyl-2,4-pentanedione] |  | 10.8 |  |  |  |  |  | ability to slow acrolein-induced NAC thiol loss [7]: minimally protective |
| C=CC=O [acrolein] |  |  |  |  |  |  | −78.4±7 | IC50 ([2]; Rattus norvegicus, acrolein alone, 0.001-1 mM, read-out: IC50 of acrolein for decrease in membrane 3H-DA transport): 66 µM; IC50 ([6]; Rattus norvegicus, acrolein alone, 0.001-1 mM, read-out: IC50 of acrolein for loss of synaptosomal sulfhydryl groups): 74 µM; rate of acrolein-induced sulfhydryl (NAC) loss (mean rate±95% confidence interval) [7]: -78.4 ± 6.2 nmol/s |
| COc1cc(/C=C/C(=O)CC(=O)/C=C/c2ccc(O)c(OC)c2)ccc1O [curcumin, reference compound] |  | 8 |  |  |  |  |  | water solubility (Aqueous solubility): insolubility in aqueous solutions |
| CC(=O)CC(=O)C(F)(F)F [TFPD, 1,1,1,-trifluoro-2,4-pentanedione] | modestly effective |  | > 99% and 99% | significantly increased the acrolein LC50 | modestly effective | more modest | −52.1±5 | protection against H2O2-induced cytotoxicity (MN9D cells [3]): 3 fold; increase in acrolein LC50 (MN9D cells [5]): ~7 fold; cytoprotection / thiol protection in acrolein-exposed synaptosomes [6]: some thiol protection; thiol protection against acrolein at elevated pH ([7]; pH 9.0): none was observed; also recorded: did not increase |
| CC1(C)CC(=O)CC(=O)C1 [DMD, 5,5-Dimethyl-1,3-cyclohexanedione] |  | 5.3 | 99% | did not provide protection | significant thiol protection | largest increases in the acrolein IC50 | −2.4±0.3 | protection against acrolein-induced cell death in serum-free medium (MN9D cells [5]): substantial increases in the acrolein LC50; cytoprotection / thiol protection in acrolein-exposed synaptosomes [6]: powerful cytoprotectant |
| O=C1CCC(=O)C1 [CPD, 1,3-cyclopentanedione] | ineffective |  |  | completely prevented cell death | modestly effective |  |  |  |
| CC(=O)CC(C)=O [AcAc, acetylacetone] | modestly effective | 8.9 |  | significantly increased the acrolein LC50 | modestly effective | largest increases in the acrolein IC50 | −24.9±5 | EC50 [1]: 909 µM; protection against H2O2-induced cytotoxicity (MN9D cells [3]): 3 fold; concentration dependence of protection against H2O2 (MN9D cells [3]): concentration-dependent protection; also recorded: significant increases in the LC50 of H2O2; increase in enolate concentration [4]: ~100 fold; concentration dependence of protection against acrolein (MN9D cells [5]): concentration-dependent protection; also recorded: significant increases in the LC50; increase in acrolein LC50 (MN9D cells [5]): ~7 fold; LD50 (whole animal): 175 mg/kg; rate of acrolein-induced sulfhydryl (NAC) loss (mean rate±95% confidence interval) [7]: -24.9 ± 3.6 nmol/s; rate of acrolein-induced sulfhydryl (NAC) loss ([7]; pH 9.0): -2.43 ± 2.2 nmol/s; thiol protection against acrolein at elevated pH ([7]; pH 9.0): substantially elevated; also recorded: completely protective |
| CC(=O)CCC(C)=O [HD, 2,5-hexanedione, reference compound] | ineffective |  |  | neither DEM nor HD were effective; also recorded: slight increase in LC50 | did not affect the rate of acrolein-induced thiol loss | Neither DEM nor HD significantly affected |  | ability to slow acrolein-induced NAC thiol loss [7]: not effective |
| CC1(C)OC(=O)CC(=O)O1 [Meld. Acid, 2,2-dimethyl-1,3-dioxane-4,6-dione] |  | 4.8 |  | did not provide protection | significant thiol protection | largest increases in the acrolein IC50 |  | protection against acrolein-induced cell death in serum-free medium (MN9D cells [5]): substantial increases in the acrolein LC50 |
| CCOC(=O)CC(=O)OCC [DEM, diethyl malonate] | ineffective | 12.9 | < 0.1% | neither DEM nor HD were effective |  | Neither DEM nor HD significantly affected |  | increase in enolate concentration [4]: ~100 fold; cytoprotection / thiol protection in acrolein-exposed synaptosomes [6]: not cytoprotective |
| O=C(O)CN(CCN(CC(=O)O)CC(=O)O)CC(=O)O [EDTA] |  |  |  |  |  |  |  | EC50 [1]: 31 µM |
